Data published in PMC5454942, “The Potential of Triterpenoids from Loquat Leaves (Eriobotrya japonica) for Prevention and Treatment of Skin Disorder” (International Journal of Molecular Sciences, 2017).
In brackets after ≈: the same amount, converted by molar mass. Several values for one entry are separate records, joined by “and”; a condition that tells them apart may be missing. Identical values can stand only once. Like-named read-outs stand apart in the source and are kept apart here.

Columns and labels:
mushroom tyrosinase = experiment: Tyrosinase inhibition assay; type: biochemical; settings: for inhibitory effect on tyrosinase (in words): L-DOPA as substrate; for inhibitory activity on tyrosinase (in words): L-tyrosine as substrate, relatively high concentrations
Protocol: Tyrosinase inhibition activity was evaluated by using L-tyrosine and L-DOPA as substrates, as described. Briefly, 333 μL of 2.5 mM L-tyrosine or L-DOPA solution (Sigma-Aldrich) was mixed with 600 μL of 0.1 M phosphate buffer (pH 6.8) and incubated at 25 °C. Then, 33 μL of the sample solution (dissolved in DMSO in various concentrations) and 33 μL of 1380 units/mL mushroom tyrosinase (Sigma-Aldrich) were added to the mixture. The optical density was measured at 475 nm up to the appropriate time. Kojic acid (Sigma-Aldrich) was used as the positive control; the final concentration is 3.3 μg/mL.

RBL-2H3 cells = experiment: β-hexosaminidase release from IgE-stimulated RBL-2H3 mast cells; type: cell-based, rat
Procedure, shortened: (§1)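 IgE-sensitized RBL-2H3 cells (0.5 μg/mL anti-DNP IgE, 24 h) treated with sample 30 min in Tyrode buffer, then challenged 1 h with 50 μg/mL DNP-BSA. Released β-hexosaminidase measured with 2 mM p-nitrophenyl-N-acetyl-β-glucosaminide, 3 h, A405; viability by parallel MTT.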

Propionibacterium acnes = experiment: Anti-bacterial assay (growth inhibition, MIC/MBC by broth microdilution); type: cell-based; settings: for MBC / MIC / inhibition at 100 µg/mL: Cutibacterium acnes; for inhibition at 100 µg/mL: read-out: Inhibition Rate (P. acnes growth); for activity against P. acnes (in words): at their maximum solubility
Procedure, shortened: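 P. acnes NBRC 107605 grown in GAM broth 30 h at 37 °C, then used at 10^5 CFU/mL. Compounds in DMSO incubated with bacteria 30 h at 37 °C; growth read at 630 nm. MIC and MBC by broth microdilution.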

B16 melanoma cells [1] = experiment: Anti-melanogenesis assay (melanin content); type: cell-based, mouse; settings: for inhibition at 1 µg/mL: 1 μg/ml; for inhibition at 2.5 µg/mL: 2.5 μg/ml; for IC50 / S.I (selectivity index, CC50 value/IC50 value): B16 melanoma cells; for inhibition at 5 µg/mL: 5 μg/ml; for inhibition at 10 µg/mL: 10 μg/ml
Procedure, shortened: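 B16 cells treated with samples in DMSO (<0.2%) for 48 h, then re-dosed in fresh medium for a further 24 h; arbutin served as positive control. Melanin content read at 405 nm and viability by MTT at 570 nm.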

[2] = tested on: Epstein–Barr virus early antigen; set-up: method as in PMID 16204964, PMID 14745168; settings: cited from earlier work
[3] = Cell viability of RBL-2H3 cells (parallel MTT); type: cell-based, rat; settings: rat; 25 μg/ml, RBL-2H3 cells; read-out: Cell viability
Procedure, shortened: as §1

[4] = Cell viability of B16 melanoma cells (MTT); settings: mouse
[5] = tested on: inflammation induced by 12-O-tetradecanoylphorbol-13-acetate (TPA); set-up: method as in PMID 16204964, PMID 14745168; settings: mice; cited from earlier work
NHDF-Ad cells = experiment: Hyaluronic acid production assay (ELISA, with MTT); type: cell-based, human; settings: fold of control
Protocol: NHDF-Ad cells were seeded on 96-well plates (5 × 10^3 cells/well) for 24 h before the treatment. The medium was replaced with a mixture of 1 μL of sample solution (DMSO < 0.5% per well) and 99 μL of DMEM supplemented with 0.5% FBS. After 72 h cultivation, the amount of hyaluronic acid in the medium was measured using a QnE Hyaluronic acid ELISA kit (Biotech Trading Partners, Encinitas, CA, USA). The amount of hyaluronic acid production was quantitatively calculated from the standard curve. Cell viability was measured by the MTT method, and ascorbic acid was used as a positive control.

B16 melanoma cells [6] = experiment: Cell viability of B16 melanoma cells (MTT); settings: B16 cells
[7] = Rattus norvegicus, RBL-2H3, 25 μg/mL, read-out: Inhibition Rate (β-hexosaminidase release)
[8] = P. acnes, broth microdilution, read-out: MBC
[9] = P. acnes, broth microdilution, read-out: MIC
[10] = Mus musculus, B16 cells, read-out: Inhibition rate (100% − melanin synthesis)
[11] = Mus musculus, read-out: IC50 (melanin synthesis)
[12] = Mus musculus, read-out: IC50 melanin
[13] = Rattus norvegicus, RBL-2H3, read-out: Inhibition Rate (β-hexosaminidase release)

Compound | inhibitory effect on tyrosinase (in words) (mushroom tyrosinase) | inhibitory activity on tyrosinase (in words) (mushroom tyrosinase) | inhibition at 25 µg/mL (RBL-2H3 cells; [7]) [%] | MBC (Propionibacterium acnes; [8]) [mg/L] | MIC (Propionibacterium acnes; [9]) [mg/L] | inhibition at 100 µg/mL (Propionibacterium acnes; concentration 100 μg/mL) [%] | activity against P. acnes (in words) (Propionibacterium acnes) | inhibition at 1 µg/mL (B16 melanoma cells [1]; [10]) [%] | inhibition at 2.5 µg/mL (B16 melanoma cells [1]; [10]) [%] | IC50 (B16 melanoma cells [1]; [11]) [µM] | IC50 (B16 melanoma cells [1]; [12]) [mg/L] | viability at 25 μg/ml [3] [%] | CC50 at 72 h ([4]; B16 melanoma cells) | S.I (selectivity index, CC50 value/IC50 value) (B16 melanoma cells [1]) | inhibition at 5 µg/mL (B16 melanoma cells [1]; [10]) [%] | inhibition at 10 µg/mL (B16 melanoma cells [1]; [10]) [%] | Inhibition rate (100% − cell viability) (B16 melanoma cells [6]; 1 μg/ml) [%] | Inhibition rate (100% − cell viability) (B16 melanoma cells [6]; 2.5 μg/ml) [%] | Inhibition rate (100% − cell viability) (B16 melanoma cells [6]; 5 μg/ml) [%] | Inhibition rate (100% − cell viability) (B16 melanoma cells [6]; 10 μg/ml) [%] | other results
C[C@H]1[C@H](C)CC[C@]2(C(=O)O)CC[C@]3(C)C(=CC[C@@H]4[C@@]5(C)CC[C@H](O)C(C)(C)[C@@H]5CC[C@]43C)[C@H]12 [Compound 1, Ursolic acid] | no inhibitory effect | moderate inhibitory activity | 72.5 ± 3 | 100 (≈ 219 µM) | 50 (≈ 109 µM) | 109.8 ± 0.5 | active | 24 ± 0.8 | 58.5 ± 3.2 | 4.8 | 2.2 | 103 ± 5.3 | 4.3 µg/mL and 9.4 µM |  |  |  |  |  |  |  | inhibition at 5 µg/mL (RBL-2H3 cells; Rattus norvegicus, RBL-2H3, 5 μg/mL, read-out: Inhibition Rate (β-hexosaminidase release)): 0%; inhibition at 12.5 µg/mL (RBL-2H3 cells; Rattus norvegicus, RBL-2H3, 12.5 μg/mL, read-out: Inhibition Rate (β-hexosaminidase release)): 37.6 ± 3%; IC50 (RBL-2H3 cells; Rattus norvegicus, IgE-stimulated RBL-2H3 cells, read-out: IC50 (β-hexosaminidase release)): 39.5 µM; inhibition at 0.5 µg/mL (B16 melanoma cells [1]; Mus musculus, 0.5 μg/ml, B16 cells, read-out: Inhibition rate (100% − melanin synthesis)): 4.2 ± 1.7%; inhibitory activity against TPA-induced Epstein–Barr virus early antigen activation (in words) [2]: significant inhibitory activity; inhibitory activity against TPA-induced inflammation (in words) [5]: significant inhibitory activity; HA/CV value (hyaluronic acid %/cell viability %) (NHDF-Ad cells; 5 μg/mL): 4.7
CC1(C)CC[C@]2(C(=O)O)CC[C@]3(C)C(=CC[C@@H]4[C@@]5(C)C[C@@H](O)[C@H](O)C(C)(C)[C@@H]5CC[C@]43C)[C@@H]2C1 [Compound 7, Maslinic acid] | no inhibitory effect | moderate inhibitory activity |  |  |  |  | active | 2.8 ± 1.1 | 12.2 ± 1.9 | 18.5 | 8.7 | 84.4 |  | > 1.0 | 47.5 ± 0.4 | 54.5 ± 3 | 2.5 ± 2.2 | 3.2 ± 4.8 | 42.2 ± 4.0 | 44.3 ± 6.4 | IC50 (RBL-2H3 cells; Rattus norvegicus, RBL-2H3, read-out: IC50 (β-hexosaminidase release), IgE-stimulated RBL-2H3 cells): 22.9 µM; inhibition at 5 µg/mL (RBL-2H3 cells; [13]): 9.5 ± 6.6%; inhibition at 12.5 µg/mL (RBL-2H3 cells; [13]): 58.2 ± 3%; inhibition at 25 µg/mL (RBL-2H3 cells; [13]): 66 ± 2.6%; IC50 (RBL-2H3 cells; read-out: IC50 (β-hexosaminidase release), IgE-stimulated RBL-2H3 cells): 22.8 µM; MBC (Propionibacterium acnes): 150 mg/L (≈ 317 µM); MIC (Propionibacterium acnes): 50 mg/L (≈ 106 µM); inhibition at 100 µg/mL (Propionibacterium acnes): 104 ± 3.1%; inhibition at 20 µg/mL (B16 melanoma cells [1]; Mus musculus, 20 μg/ml, B16 cells, read-out: Inhibition rate (100% − melanin synthesis)): 65.1 ± 0.4%; inhibitory activity against TPA-induced Epstein–Barr virus early antigen activation (in words) [2]: significant inhibitory activity; CC50 at 72 h [4]: 13.8 µg/mL and 29.3 µM; Inhibition rate (100% − cell viability) (B16 melanoma cells [6]; 20 μg/ml): 76.5± 3.0%; inhibitory activity against TPA-induced inflammation (in words) [5]: significant inhibitory activity
C[C@H]1[C@H](C)CC[C@]2(C(=O)O)CC[C@]3(C)C(=CC[C@@H]4[C@@]5(C)C[C@@H](O)[C@H](O)C(C)(C)[C@@H]5CC[C@]43C)[C@H]12 [Compound 8, Corosolic acid] |  |  | 36.1 ± 6.7 | 100 (≈ 212 µM) | 50 (≈ 106 µM) | 105.9 ± 0.4 | active | 3.4 ± 5.1 | 0.5 ± 4.1 | 18.7 | 8.8 | 80.4 ± 1.6 | 12.2 µg/mL and 25.8 µM | 1.4 | 17.4 ± 5.5 | 59.8 ± 1.9 | 0.0 ± 3.5 | 0.0 ± 3.8 | 0.3 ± 4.0 | 39.3 ± 4.7 | Inhibition rate (100% − cell viability) (B16 melanoma cells [6]; 20 μg/ml): 94.8± 0.3%; HA/CV value (hyaluronic acid %/cell viability %) (NHDF-Ad cells; 10 μg/mL): 5.9
C[C@@H]1CC[C@]2(C(=O)O)CC[C@]3(C)C(=CC[C@@H]4[C@@]5(C)CC[C@H](O)C(C)(C)[C@@H]5CC[C@]43C)[C@@H]2[C@]1(C)O [Compound 10, Pomolic acid] |  |  | 22.4 ± 1.9 |  |  | 84.4 ± 1.2 | active | 3.2 ± 8.2 | 28.4 ± 1.5 | 14 | 6.6 | 77 ± 5.3 | 4.9 µg/mL and 10.5 µM | 0.8 | 43.9 ± 1.9 | 55.8 ± 8.1 | 1.9 ± 5.4 | 0.0 ± 6.1 | 50.9 ± 4.4 | 68.4 ± 1.5 | HA/CV value (hyaluronic acid %/cell viability %) (NHDF-Ad cells; 10 μg/mL): 5.8
